Assay results: patent publication US9040571B2, “Veterinary formulation for administration of a water-insoluble drug to a target animal through a water distribution system” (Elanco Animal Health Ireland Limited, priority 1999, dated 2015)

Experiment: Particle size distribution by static light scattering, storage stability
Assay type: physicochemical
Settings: 45 mm lens, tap-water
Description: Additionally, the particle size distribution of the original suspoemulsion was determined by static light scattering measurements using a 45 mm lens and tap-water. The stability of the undiluted suspoemulsion as measured by static light scattering measurements was followed over a period of 8 months. The results from the Turbiscan scan measurements were evaluated graphically. […] This implies that the diluted product stays stable under static conditions, like for example in the dosage tank of an automatic injection system.

COC(=O)Nc1nc2cc(C(=O)c3ccc(F)cc3)ccc2[nH]1 [Fb powder, flubendazole]
particle size distribution at t = 0, (D[3, 2] in μm): 1.53 μm
